From patent US5532242A, “Piperazine derivatives as 5-HT receptors antagonists” (John Wyeth & Brother, Limited, priority 1992, dated 1996)
pIC50: −log10 of the molar value.

What was measured:
5-HT1A receptor [1] = target: T1, 5-HT1A receptor (Rattus norvegicus, UniProt P19327); assay: 5-HT1A receptor binding activity in rat hippocampal membrane homogenate
T1 construct: rat hippocampal membrane homogenate; from tissue; host or cells: rat hippocampal membrane homogenate
T1 sequence (P19327 1-422): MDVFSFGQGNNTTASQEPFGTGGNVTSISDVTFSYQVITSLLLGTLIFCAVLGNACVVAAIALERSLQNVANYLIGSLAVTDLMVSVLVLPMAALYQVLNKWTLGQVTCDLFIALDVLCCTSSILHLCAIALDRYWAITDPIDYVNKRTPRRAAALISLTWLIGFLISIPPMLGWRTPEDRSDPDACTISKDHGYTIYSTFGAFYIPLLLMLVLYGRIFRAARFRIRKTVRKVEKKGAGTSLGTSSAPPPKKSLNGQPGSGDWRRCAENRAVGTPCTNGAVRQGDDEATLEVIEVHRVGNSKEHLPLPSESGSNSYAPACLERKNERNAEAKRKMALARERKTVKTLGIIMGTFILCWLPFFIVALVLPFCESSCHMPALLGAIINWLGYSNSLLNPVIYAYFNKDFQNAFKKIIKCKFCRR
Description: The compounds of the invention were tested for 5-HT1A receptor binding activity in rat hippocampal membrane homogenate by the method of B S Alexander and M D Wood, J Pharm Pharmacol, 1988, 40, 888-891.

5-HT1A receptor [2] = target: T2, 5-HT1A receptor (Cavia porcellus, UniProt A0A286Y074); assay: 5-HT1A receptor antagonism: antagonism of 5-carboxamidotryptamine in the guinea-pig ileum in vitro; details: read-out: pA2 (converted)
T2 construct: guinea-pig ileum in vitro; from tissue; host or cells: guinea-pig ileum
T2 sequence (A0A286Y074 1-421): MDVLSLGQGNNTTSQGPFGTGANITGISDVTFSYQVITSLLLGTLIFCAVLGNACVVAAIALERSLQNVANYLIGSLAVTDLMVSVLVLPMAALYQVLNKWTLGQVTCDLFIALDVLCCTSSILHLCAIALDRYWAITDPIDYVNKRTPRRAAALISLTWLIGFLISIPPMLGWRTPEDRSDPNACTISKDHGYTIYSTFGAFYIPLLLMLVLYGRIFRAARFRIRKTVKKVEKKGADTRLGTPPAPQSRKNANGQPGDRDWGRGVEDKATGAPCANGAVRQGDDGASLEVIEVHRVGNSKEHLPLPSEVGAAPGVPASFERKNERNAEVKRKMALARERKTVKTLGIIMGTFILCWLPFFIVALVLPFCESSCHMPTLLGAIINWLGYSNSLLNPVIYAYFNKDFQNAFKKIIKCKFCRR
Description: The compounds are tested for 5-HT1A receptor antagonism activity in a test involving the antagonism of 5-carboxamidotryptamine in the guinea-pig ileum in vitro (based upon the procedure of Fozard et al, Br J Pharmac, 1985, 86, 601P ).

COc1ccccc1N1CCN(CCN(C(=O)C2CCCCC2)c2ccccc2)CC1 [Example 2, N-(2-(4-(2-Methoxyphenyl)piperazin-1-yl)ethyl)-N-phenylcyclohexanecarboxamide]
pIC50 (5-HT1A receptor [1]): 8.40
Kb (5-HT1A receptor [2]): 6.31 nM
